Data from patent US12662504B2, “High-solubility rebaudioside D complex” (SUNTORY HOLDINGS LIMITED, priority 2019, dated 2026).
Like-named read-outs stand apart in the source and are kept apart here. Blank lines part the entries; values can stand above or below the compound they belong to. Peptide text beside a SMILES is read from it.

Legend:
[1] = tested on: panelists trained about sensory attributes of sweeteners; test: Evaluation of flavor by trained panelists (Example Q); type: in vivo; conditions: 300 mg/L in terms of Reb. A or Reb. D; sucrose 9 SEV; 5 panelists; 0 to 6 points, sucrose control = 3
Description: In order to confirm effects of the three-component complex of erythritol/Reb. D/fructose, evaluation of flavor was made. Reb. A and Reb. D were also used, and sucrose was used as a control. Each of a two-component complex and a three-component complex was prepared as a solid according to the method of the working example so that about 3.6% of Reb. D was contained. Each of the complexes or Reb. A was subjected to adjustment by adding water thereto in a manner such that the amount in terms of Reb. A or Reb. D became 300 mg/L. The concentration of the sucrose solution was adjusted to be 9 SEV (sucrose equivalent value). Evaluation of taste quality was made by panelists trained about sensory attributes of sweeteners (5 members). The respective items of evaluation of flavor (on-set speed, lingering sweet aftertaste, bitterness intensity, lingering bitter aftertaste and comprehensive evaluation) were scored in a range of 0 to 6 points. As a reference, sucrose alone was used as a control (3 points). 6 points means high on-set speed of sweetness, short lingering sweet aftertaste, low bitterness intensity, short lingering bitter aftertaste and satisfactory overall evaluation.

[2] = times the sweetness of sugar / sucrose; cited from earlier work
[3] = Evaluation of melting/dissolution (Example A): melting of auxiliary raw material and dissolution of Reb. D in the melt
Description: The meltability of a raw material to be combined with Reb. D (hereinafter also referred to as “the auxiliary raw material”) and the solubility of Reb. D were evaluated, and the auxiliary raw material with which the complex of the present invention can be obtained was examined. As the auxiliary raw material, raw materials described in the table below were selected from food additives that can be added to beverages. The raw materials used for forming the complex are as follows: Reb. D formulation (purity: 95% (w/w), manufactured by Jining Renewal and Joint International); D-allulose (purity: 99%+), arabinose (purity: 98%+), fructose (purity: 99%+), glucose (purity: 99%+), maltose monohydrate (purity: 95%+), mannitol (purity: 99%+), mannose (purity: 98%+), rhamnose (purity: 98%+), ribose (purity: 98%+), sucrose (purity: 99%+), xylitol (purity: 98%+) and xylose (purity: 98%+), trehalose dihydrate (purity: 98%+), sodium pantothenate (purity: 98%+) (each manufactured by NACALAI TESQUE, INC.); and erythritol (purity: 98% (w/w), manufactured by Mitsubishi-Chemical Foods Corporation). Also in the subsequent working examples, the raw materials described above were used unless otherwise stated.
The auxiliary raw material described in Table 1 was mixed with 100 mg of Reb. D formulation (purity: 95% (w/w)) in a heat-resistant vial, the temperature was elevated to the melting point of the auxiliary raw material or higher, and it was confirmed whether or not the auxiliary raw material was melted. After melting of the auxiliary raw material and dissolution of the Reb. D formulation were visually confirmed, the mixture was rapidly cooled in ice and stored at 10° C. The weight of the auxiliary raw material was adjusted based on the amount that enables dissolution of Reb. D. The weight of D-allulose (another name: D-psicose) was 2,000 mg, the weight of L-glutamine was 1,000 mg, the weight of vitamin D3 was 1,144 mg, and the weight of an auxiliary raw material other than those was 4,000 mg. The case where it was recognized that the auxiliary raw material was melted and that Reb. D was dissolved (including the case where dissolution was visually recognized more when compared to the point of adding (complete dissolution is not required)) was evaluated as “O”, and the case where it was not recognized that the auxiliary raw material was melted even at a temperature equal to or higher than the melting point of the auxiliary raw material, or the case where it was not recognized that Reb. D was dissolved though the auxiliary raw material was successfully melted (after the addition, change in outer appearance was not visually recognized) was evaluated as “X”.

[4] = type: physicochemical
From the text: In an embodiment of the present invention, the content of Reb. D in the complex is an amount equal to or less than the saturation solubility relative to the at least one compound selected from the carbohydrates and the water-soluble vitamins and the salts thereof. The saturation solubility means an amount (mg) with which Reb. D is no longer dissolved in a melt of 1 g of the at least one compound selected from the carbohydrates and the water-soluble vitamins and the salts thereof. The saturation solubility varies depending on the type of the compound and the temperature of the melt, but can be easily and accurately confirmed by actually forming a melt and dissolving Reb. D therein. For example, when forming a melt by using erythritol, 112 mg of Reb. D is dissolved in 1 g of erythritol at 190° C. (i.e., 112 mg/g).

Structure (SMILES): C=C1C[C@@]23CC[C@H]4[C@@](C)(CCC[C@@]4(C)C(=O)O[C@@H]4O[C@H](CO)[C@@H](O)[C@H](O)[C@H]4O)[C@@H]2CC[C@]1(O[C@@H]1O[C@H](CO)[C@@H](O)[C@H](O[C@@H]2O[C@H](CO)[C@@H](O)[C@H](O)[C@H]2O)[C@H]1O[C@@H]1O[C@H](CO)[C@@H](O)[C@H](O)[C@H]1O)C3 [Reb. A, rebaudioside A]
Bitterness intensity [1]: 2.10 points
Comprehensive evaluation [1]: 1.70 points
Lingering bitter aftertaste [1]: 1.70 points
Lingering sweet aftertaste [1]: 1.70 points
On-set speed [1]: 2.60 points

Structure (SMILES): CC1=CC(=O)NS(=O)(=O)O1 [acesulfame potassium]
sweetness relative to sugar (sucrose) [2]: about 200 times

Melting/dissolution [3]: ◯
Structure (SMILES): OC[C@@H](O)[C@@H](O)[C@H](O)[C@H](O)CO [Mannitol]

Structure (SMILES): O=C(CO)[C@@H](O)[C@H](O)[C@H](O)CO [Fructose]
Melting/dissolution [3]: ◯

Melting/dissolution [3]: ◯
Structure (SMILES): OC[C@H]1O[C@H](O[C@H]2[C@H](O)[C@@H](O)C(O)O[C@@H]2CO)[C@H](O)[C@@H](O)[C@@H]1O (mixture of isomers) [Maltose]

saturation solubility of Reb. D in erythritol melt [4]: 112 mg/g
Structure (SMILES): C=C1C[C@@]23CC[C@H]4[C@@](C)(CCC[C@@]4(C)C(=O)O[C@@H]4OC(CO)[C@@H](O)C(O)C4O[C@@H]4OC(CO)[C@@H](O)C(O)C4O)[C@@H]2CC[C@]1(O[C@@H]1OC(CO)[C@@H](O)C(O[C@@H]2OC(CO)[C@@H](O)C(O)C2O)C1O[C@@H]1OC(CO)[C@@H](O)C(O)C1O)C3 (some centres unmarked) [Reb. D, rebaudioside D]
Bitterness intensity [1]: 2.10 points
Comprehensive evaluation [1]: 2.20 points
Lingering bitter aftertaste [1]: 2.40 points
Lingering sweet aftertaste [1]: 2.50 points
On-set speed [1]: 2.40 points

Melting/dissolution [3]: ◯
Structure (SMILES): O=C[C@H](O)[C@@H](O)[C@H](O)CO [Xylose]

Melting/dissolution [3]: ◯
Structure (SMILES): C[C@H](O)[C@H](O)[C@@H](O)[C@@H](O)C=O [Rhamnose]

Melting/dissolution [3]: ◯
Structure (SMILES): OC[C@@H](O)[C@@H](O)CO [Erythritol]

Melting/dissolution [3]: ◯
Structure (SMILES): O=C(CO)[C@H](O)[C@H](O)[C@H](O)CO [D-allulose]

Melting/dissolution [3]: ◯
Structure (SMILES): OC[C@@H](O)[C@@H](O[C@H]1O[C@H](CO)[C@@H](O)[C@H](O)[C@H]1O)[C@H](O)[C@@H](O)CO [Maltitol]

Structure (SMILES): C=C1CC[C@H](O)C/C1=C/C=C1\CCC[C@]2(C)[C@@H]([C@H](C)CCCC(C)C)CC[C@@H]12 [Vitamin D3]
Melting/dissolution ([3]; auxiliary raw material mixed with 100 mg of Reb. D formulation, heated to melting point or higher, visual): ◯

Melting/dissolution [3]: ◯
Structure (SMILES): CC(C)(CO)[C@@H](O)C(=O)NCCC(=O)[O-].[Na+] [Sodium pantothenate]

Melting/dissolution [3]: ◯
Structure (SMILES): O=C[C@H](O)[C@H](O)[C@H](O)CO [Ribose]

Melting/dissolution [3]: ◯
Structure (SMILES): OC[C@H]1O[C@@](CO)(O[C@H]2O[C@H](CO)[C@@H](O)[C@H](O)[C@H]2O)[C@@H](O)[C@@H]1O [Sucrose]
Bitterness intensity [1]: 3.00 points
Comprehensive evaluation [1]: 3.00 points
Lingering bitter aftertaste [1]: 3.00 points
Lingering sweet aftertaste [1]: 3.00 points
On-set speed [1]: 3.00 points

Melting/dissolution [3]: ◯
Structure (SMILES): NC(=O)CC[C@H](N)C(=O)O [L-glutamine]

Structure (SMILES): COC(=O)[C@H](Cc1ccccc1)NC(=O)[C@@H](N)CC(=O)O [aspartame] (H-Asp-Phe-OMe)
sweetness relative to sugar (sucrose) [2]: about 180 times

Melting/dissolution [3]: ◯
Structure (SMILES): O=C[C@@H](O)[C@H](O)[C@H](O)CO [Arabinose]

Melting/dissolution [3]: ◯
Structure (SMILES): OC[C@@H](O)[C@H](O)[C@@H](O)CO [Xylitol]

Melting/dissolution [3]: ◯
Structure (SMILES): O=C(O)CC(O)C(=O)O (racemic) [DL-malic acid]

Structure (SMILES): OC[C@H]1O[C@H](O[C@]2(CCl)O[C@H](CCl)[C@@H](O)[C@@H]2O)[C@H](O)[C@@H](O)[C@H]1Cl [sucralose]
sweetness relative to sugar (sucrose) [2]: about 600 times
